# Assay results reported in patent publication US20100255104A1, “PHARMACEUTICAL FORMULATION OF TAXANE” (ERIOCHEM S.A., priority 2007, published 2010).
# Experiments:
# [1] = Chemical stability test of solubilized docetaxel by HPLC; type: physicochemical; conditions: vial of Example 3, solubilizing composition with 15% DMA, 25° C., 60% relative humidity
# Method: The vial of Example 3 containing a solubilizing composition of 15% DMA was subjected to a chemical stability test described as follows:
# Immediately after solubilizing docetaxel and at periods of 2, 4, 6 and 8 hours starting from that moment, a sample is taken from the vial using a disposable syringe (1 ml, Darling) with a disposable hypodermic needle (50×8-21Gx2, Neojet). The volume of the sample was 0.5 ml and each sample was weighed and diluted up to a final volume of 10 ml with the mobile phase to be used in HPLC. Reconstituted material remained in a chamber at 25° C. and 60% room relative humidity during the test time.
# Mobile phase: Filtered and deaerated mixture of acetonitrile, Methanol, water (26:32:42 v:v:v). The column used was Beckman stainless steel (Ultrasphere ODS of 4.6 mm×25 cm, 5 μm, part N° 235329). The guard column used was Beckman (Ultrasphere ODS of 4.6 mm×4.5 cm, 5 μm, part N° 243533). The detector used was UV type, Waters 2487 dual and the measure was done at wave length 232 nm. The volume injected was 20 μl, using a Waters 717 plus autosampler, and samples were maintained in the autosampler at 4° C. after preparation until the moment of being injected. Retention time for docetaxel is approximately 25 min and run time is 90 min. Flow rate remained 1.0 ml/min using a Waters 1525 binary pump for HPLC. The software used was Breeze version 3.30. The column temperature was 40° C. A standard for the assessment and determination of related substances was prepared, weighing exactly 20 mg of standard docetaxel in a volumetric flask of 50 ml; it was dissolved with 5 ml ethanol and was diluted up to final volume with mobile phase. A solution of impurity 10-deacethilbaccatine III was prepared in order to detect and quantify it in a chromatogram, weighing 5 mg of 10-deacethilbaccatine III, dissolving with 1 ml ethanol and diluting up to final volume, 10 ml, with mobile phase in a volumetric flask. In the same way, a solution of impurity 7-epi-docetaxel was prepared, weighing 10 mg of docetaxel, 10 ml of NaOH 0.005 N were added. It was left to stand for 2 hours; 2.5 ml of ethanol were added and it was diluted to final volume, 25 ml with mobile phase.
# [2] = Laboratory solubility tests of docetaxel API versus lyophilized solid composition in tensoactives; type: physicochemical; conditions: for solubility in a tensoactive aqueous solution: direct dissolution
Docetaxel concentration (percentage of area ratio) ([1]; time 0 hours),Docetaxel concentration (percentage of area ratio) ([1]; time 2 hours),Docetaxel concentration (percentage of area ratio) ([1]; time 4 hours),Docetaxel concentration (percentage of area ratio) ([1]; time 6 hours),Docetaxel concentration (percentage of area ratio) ([1]; time 8 hours),solubility in pure polysorbate 80 [2],solubility in a tensoactive aqueous solution [2],Compound
99.61 percentage of area ratio,99.59 percentage of area ratio,99.57 percentage of area ratio,99.57 percentage of area ratio,99.54 percentage of area ratio,–,–,CC(=O)O[C@@]12CO[C@@H]1C[C@H](O)[C@@]1(C)C(=O)[C@H](O)C3=C(C)[C@@H](OC(=O)[C@H](O)[C@@H](NC(=O)OC(C)(C)C)c4ccccc4)C[C@@](O)([C@@H](OC(=O)c4ccccc4)[C@H]21)C3(C)C [Docetaxel]
–,–,–,–,–,very difficultly,cannot be dissolved directly,CC(=O)O[C@@]12CO[C@@H]1C[C@H](O)[C@@]1(C)C(=O)[C@H](O)C3=C(C)[C@@H](OC(=O)[C@H](O)[C@@H](NC(=O)OC(C)(C)C)c4ccccc4)C[C@@](O)([C@@H](OC(=O)c4ccccc4)[C@H]21)C3(C)C [anhydrous docetaxel]
–,–,–,–,–,very difficultly,cannot be dissolved directly,CC(=O)O[C@@]12CO[C@@H]1C[C@H](O)[C@@]1(C)C(=O)[C@H](O)C3=C(C)[C@@H](OC(=O)[C@H](O)[C@@H](NC(=O)OC(C)(C)C)c4ccccc4)C[C@@](O)([C@@H](OC(=O)c4ccccc4)[C@H]21)C3(C)C.O.O.O [trihydrate docetaxel]
